The source of these data is patent US4221907A, “Substituted O-α-D and O-β-D-multi-galactopyranosyl and glucopyranosyl 1→4 and 1→6 galactopyranosyl 1→6 α-D-glucopyranoses” (American Cyanamid Company, priority 1979, dated 1980).

The test system of one assay is shunt pathway. In words: Test Code 036 (C-Shunt inhibitor): lysis of human erythrocytes in autologous serum via shunt pathway activated by cobra venom factor. The settings on record: activity in wells, twofold serial dilution; higher well number indicates higher activity. It counts as biochemical. From the text:
(§1) An active inhibitor protects C2 from C1 and C4; (ii) Test Code 035 (C3-C9 inhibitor)--This test determines the ability of the late components of human complement (C3-C9) to lyse EAC 142 in the presence of appropriate dilutions of the test compound. An active inhibitor protects EAC 142 from lysis by human C3-C9; (iii) Test Code 036 (C-Shunt inhibitor)--In this test human erythrocytes rendered fragile are lysed in autologous serum via the shunt pathway activated by cobra venom factor in the presence of appropriate dilutions of the test compound. Inhibition of the shunt pathway results in failure of lysis; (iv) Forssman Vasculitis Test--Here, the well known complement dependent lesion, Forssman vasculitis, is produced in guinea pigs by intradermal injection of rabbit anti-Forssman antiserum. The lesion is measured in terms of diameter, edema and hemorrhage and the extent to which a combined index of these is inhibited by prior intraperitoneal injection of the test compound at 200 mg/kg is then reported, unless otherwise stated; (v) Forssman Shock Test--Lethal shock is produced in guinea pigs by an i.v. injection of anti-Forssman antiserum and the harmonic mean death time of treated guinea pigs is compared with that of the simultaneous controls; (vi) Complement Level Reduction Test--In this test, the above dosed guinea pigs, or others are bled for serum and the complmenet level is determined in undiluted serum by the capillary tube method of U.S. Pat. No. 3,876,376 and compared to undosed control guinea pigs; (vii) Cap 50 Test--Here, appropriate amounts of the test compound are added to a pool of guinea pig serum in vitro, after which the undiluted serum capillary tube assay referred to above is run. The concentration of compound inhibiting 50% is reported.
(§2) **Activity in wells, a serial dilution assay; higher well number indicate
(§3) higher activity. The serial dilutions are twofold-

The test system of another assay is whole complement. In words: In vivo activity (Guinea Pig): serum whole complement by capillary tube assay after dosing. The settings on record: Intraperitoneal, 200 mg/kg.
A further assay has as its target human C1 (Homo sapiens, UniProt P09871). In words: Test Code 026 (C1 inhibitor): activated human C1 destroys fluid phase human C2 in presence of C4. In kind it is biochemical. The conditions noted are these: activity in wells, twofold serial dilution; higher well number indicates higher activity.
Excerpt: as §1, §2, §3

The subject of a further assay is human complement (C3-C9). In words: Test Code 035 (C3-C9 inhibitor): lysis of EAC 142 by late components of human complement. In kind it is biochemical. The conditions noted are these: activity in wells, twofold serial dilution; higher well number indicates higher activity.
Excerpt: as §1, §2, §3

Structures can show the parent of a compound that is named as a salt.

human C1, sequence (P09871 16-688): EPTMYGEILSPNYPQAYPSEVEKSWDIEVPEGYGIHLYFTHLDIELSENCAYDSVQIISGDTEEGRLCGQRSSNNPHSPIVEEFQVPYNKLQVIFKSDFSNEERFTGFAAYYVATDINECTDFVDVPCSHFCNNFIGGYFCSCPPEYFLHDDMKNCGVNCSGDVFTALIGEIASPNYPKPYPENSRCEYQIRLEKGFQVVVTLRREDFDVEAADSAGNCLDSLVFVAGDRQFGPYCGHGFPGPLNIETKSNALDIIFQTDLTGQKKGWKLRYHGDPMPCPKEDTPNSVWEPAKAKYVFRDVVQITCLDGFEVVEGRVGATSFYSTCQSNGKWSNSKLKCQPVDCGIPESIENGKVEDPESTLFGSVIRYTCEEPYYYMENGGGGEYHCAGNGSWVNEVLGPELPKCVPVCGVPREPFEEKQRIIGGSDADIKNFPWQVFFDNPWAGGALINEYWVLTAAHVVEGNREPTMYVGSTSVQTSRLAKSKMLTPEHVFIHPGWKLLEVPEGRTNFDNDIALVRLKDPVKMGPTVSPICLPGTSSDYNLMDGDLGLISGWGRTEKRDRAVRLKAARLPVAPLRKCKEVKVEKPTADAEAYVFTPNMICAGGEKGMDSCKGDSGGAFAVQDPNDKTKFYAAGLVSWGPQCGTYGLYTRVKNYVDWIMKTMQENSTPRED
human C1, sequence (P00736 18-705 partner): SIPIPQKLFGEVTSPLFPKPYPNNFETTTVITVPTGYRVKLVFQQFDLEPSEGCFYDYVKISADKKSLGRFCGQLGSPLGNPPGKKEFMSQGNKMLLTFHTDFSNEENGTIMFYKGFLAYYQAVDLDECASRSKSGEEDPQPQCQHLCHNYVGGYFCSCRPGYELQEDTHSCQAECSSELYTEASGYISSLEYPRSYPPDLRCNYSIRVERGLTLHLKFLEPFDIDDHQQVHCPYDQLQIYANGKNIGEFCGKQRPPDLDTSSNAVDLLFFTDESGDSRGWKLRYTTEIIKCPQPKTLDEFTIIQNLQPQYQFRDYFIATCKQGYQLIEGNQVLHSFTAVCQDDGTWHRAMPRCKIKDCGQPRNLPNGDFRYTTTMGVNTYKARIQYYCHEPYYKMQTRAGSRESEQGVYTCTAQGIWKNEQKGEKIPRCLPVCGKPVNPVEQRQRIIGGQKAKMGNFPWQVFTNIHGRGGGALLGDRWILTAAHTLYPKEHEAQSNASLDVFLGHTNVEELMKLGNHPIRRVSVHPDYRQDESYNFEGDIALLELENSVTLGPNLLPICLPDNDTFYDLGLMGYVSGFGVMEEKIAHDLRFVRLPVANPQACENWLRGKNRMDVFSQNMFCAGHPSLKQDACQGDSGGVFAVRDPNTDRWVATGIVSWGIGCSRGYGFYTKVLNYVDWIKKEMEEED
human C1, sequence (P02745 23-245 partner): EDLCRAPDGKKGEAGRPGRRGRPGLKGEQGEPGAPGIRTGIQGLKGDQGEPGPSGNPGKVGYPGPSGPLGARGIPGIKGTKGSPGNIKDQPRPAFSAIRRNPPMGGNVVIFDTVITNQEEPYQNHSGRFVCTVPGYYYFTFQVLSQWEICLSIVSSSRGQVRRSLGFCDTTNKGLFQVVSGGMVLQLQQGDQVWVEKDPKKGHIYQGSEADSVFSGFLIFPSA
human C1, sequence (P02746 28-253 partner): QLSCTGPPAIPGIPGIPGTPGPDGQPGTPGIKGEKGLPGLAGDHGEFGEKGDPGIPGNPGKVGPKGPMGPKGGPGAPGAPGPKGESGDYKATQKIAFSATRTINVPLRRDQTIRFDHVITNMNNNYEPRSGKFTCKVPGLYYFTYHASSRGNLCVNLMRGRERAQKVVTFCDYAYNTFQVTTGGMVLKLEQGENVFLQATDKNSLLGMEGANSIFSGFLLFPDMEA
human C1, sequence (P02747 29-245 partner): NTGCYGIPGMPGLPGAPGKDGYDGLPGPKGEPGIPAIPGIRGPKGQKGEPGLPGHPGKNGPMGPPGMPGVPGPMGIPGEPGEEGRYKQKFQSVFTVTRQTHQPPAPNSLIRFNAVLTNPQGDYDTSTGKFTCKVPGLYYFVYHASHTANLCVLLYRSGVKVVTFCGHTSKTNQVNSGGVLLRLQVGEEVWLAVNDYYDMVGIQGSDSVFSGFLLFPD

Take `O=S(=O)(O)OC[C@H]1O[C@@H](OC[C@H]2O[C@H](OC[C@H]3OC(OS(=O)(=O)O)[C@H](OS(=O)(=O)O)[C@@H](OS(=O)(=O)O)[C@@H]3OS(=O)(=O)O)[C@H](OS(=O)(=O)O)[C@@H](OS(=O)(=O)O)[C@H]2OS(=O)(=O)O)[C@H](OS(=O)(=O)O)[C@@H](OS(=O)(=O)O)[C@@H]1O[C@H]1O[C@H](COS(=O)(=O)O)[C@@H](OS(=O)(=O)O)[C@H](OS(=O)(=O)O)[C@H]1OS(=O)(=O)O` (stereo partly drawn) [drawing 11, O-α-D-glucopyranosyl(1→4)-O-β-D-glucopyranosyl(1→6)-O-α-D-galactopyranosyl(1→6)-D-glucopyranose [glc 1α,4 glc 1β,6 gal 1α,6 glc] tetradecakis (H-sulfate), tetradecasodium salt]: in the assay on shunt pathway, the “Shunt Inhibition 036 Wells” value is recorded as “+6 Wells”. The figures for the “In vivo Activity (Guinea Pig) % Inhibition” value with whole complement (30 min), in the assay on whole complement (60 min) and with whole complement (120 min) were -54%, -45% and -39%, respectively. Besides, the “C1 026 Wells” value on human C1 is on record as “+10 Wells”. The “C-Late 035 Wells” value in the assay on human complement (C3-C9) is recorded as “+1 Wells”.
As for `O=S(=O)(O)OC[C@H]1O[C@@H](OC[C@H]2O[C@H](OC[C@H]3OC(OS(=O)(=O)O)[C@H](OS(=O)(=O)O)[C@@H](OS(=O)(=O)O)[C@@H]3OS(=O)(=O)O)[C@H](OS(=O)(=O)O)[C@@H](OS(=O)(=O)O)[C@H]2OS(=O)(=O)O)[C@H](OS(=O)(=O)O)[C@@H](OS(=O)(=O)O)[C@@H]1O[C@H]1O[C@H](COS(=O)(=O)O)[C@@H](OS(=O)(=O)O)[C@H](OS(=O)(=O)O)[C@H]1OS(=O)(=O)O` (stereo partly drawn) [drawing 10, O-α-D-glucopyranosyl(1→4)-O-β-D-glucopyranosyl(1→6)-O-α-D-galactopyranosyl(1→6)-D-glucopyranose [glc 1α,4 glc 1β,6 gal 1α,6 glc] tetradecakis (H-sulfate), tetradecasalt with trimethylamine], the “Shunt Inhibition 036 Wells” value in the assay with shunt pathway is on record as “+5 Wells”. Moreover, the “C1 026 Wells” value at human C1 is “+9 Wells”. The “C-Late 035 Wells” value in the assay with human complement (C3-C9) is listed as “+1 Wells”.
The corresponding values for `O=S(=O)(O)OC[C@H]1O[C@@H](OC[C@H]2O[C@H](OC[C@H]3OC(OS(=O)(=O)O)[C@H](OS(=O)(=O)O)[C@@H](OS(=O)(=O)O)[C@@H]3OS(=O)(=O)O)[C@H](OS(=O)(=O)O)[C@@H](OS(=O)(=O)O)[C@H]2OS(=O)(=O)O)[C@H](OS(=O)(=O)O)[C@@H](OS(=O)(=O)O)[C@@H]1O[C@H]1O[C@H](COS(=O)(=O)O)[C@@H](O[C@H]2O[C@H](COS(=O)(=O)O)[C@@H](O[C@H]3O[C@H](COS(=O)(=O)O)[C@@H](O[C@H]4O[C@H](COS(=O)(=O)O)[C@@H](O[C@H]5O[C@H](COS(=O)(=O)O)[C@@H](O[C@H]6O[C@H](COS(=O)(=O)O)[C@@H](OS(=O)(=O)O)[C@H](OS(=O)(=O)O)[C@H]6OS(=O)(=O)O)[C@H](OS(=O)(=O)O)[C@H]5OS(=O)(=O)O)[C@H](OS(=O)(=O)O)[C@H]4OS(=O)(=O)O)[C@H](OS(=O)(=O)O)[C@H]3OS(=O)(=O)O)[C@H](OS(=O)(=O)O)[C@H]2OS(=O)(=O)O)[C@H](OS(=O)(=O)O)[C@H]1OS(=O)(=O)O` (stereo partly drawn) [drawing 16, O-α-D-glucopyranosyl(1→4)-O-α-D-glucopyranosyl(1→4)-O-α-D-glucopyranosyl(1→4)-O-α-D-glucopyranosyl(1→4)-O-α-D-glucopyranosyl(1→4)-O-α-D-glucopyranosyl(1→4)-O-β-D-glucopyranosyl(1→6)-O-α-D-galactopyranosyl(1→6)-D-glucopyranose [(glc 1α,4)6 glc 1β,6 gal 1α,6 glc] nonacosakis (H-sulfate), non-acosasalt with trimethylamine] are “+5 Wells”, “+10 Wells” and “+1 Wells”.
